Test results taken from publication PMC5306082, “Physiologically based kinetic modeling of the bioactivation of myristicin” (Archives of Toxicology, 2016).

Assay: Oxidation of 1′-hydroxymyristicin to 1′-oxomyristicin, human liver microsomes
Assay type: in vitro ADME
Settings: human vs rat
Experimental: The kinetic constants for the enzymatic conversion of 1′-hydroxymyristicin to 1′-oxomyristicin were determined using incubation mixtures containing (final concentrations) 3 mM NAD^+, 2 mM GSH, and 1 mg/ml rat or human liver microsomes in 0.2 M Tris–HCl (pH 7.4). GSH was added to the incubation mixtures to trap the reactive 1′-oxo metabolite formed after oxidation of 1′-hydroxymyristicin. The level of GSH in the incubations was optimized in a previous study to obtain maximum scavenging of 1′-oxoestragole (Punt et al. [2009]). To this end, incubations were performed in the presence of increasing concentrations of GSH, ranging from 2 to 10 mM. […] Kinetic constants for this reaction in rat and human liver were derived by performing incubations with NAD^+ as a cofactor, given that in rat and human liver, NAD^+ is mainly present in an oxidized form with levels of NAD^+ being much higher than those of NADH. In a previous study, it was shown that the highest level of 1′-hydroxy alkenylbenzene oxidation occurs in incubations with microsomes in the presence of NAD^+ as cofactor. […] The enzyme responsible for the oxidation may be 17β-hydroxysteroid dehydrogenase type 2 (17β-HSD2) (Punt et al. [2010]). Prior to the addition of 1′-hydroxymyristicin at final concentrations ranging between 10 and 4000 μM to the incubation mixture from 100 times concentrated stock solutions in DMSO, samples were pre-incubated for 1 min at 37 °C. Reactions were terminated after 10 min of incubation at 37 °C by adding 25 μl (0.25 times the incubation volume) of ice-cold ACN. The formation of the GSH conjugate of 1′-oxomyristicin (GS-1′-oxomyristicin) was linear with time and microsomal protein concentration under the experimental conditions used. Blank incubations were performed without the cofactor NAD^+. Incubations were performed in triplicate. All samples were centrifuged for 5 min at 13,000×g, and the supernatant was stored at −20 °C until UPLC analysis.
Quantification of GS-1′-oxomyristicin was based on a calibration curve of the GSH adduct of the synthesized 1′-oxymyristicin made as previously described (van den Berg et al. [2012]; Punt et al. [2009]; Martati et al. [2011]; Al-Subeihi et al. [2011]). In short, a 60 μM concentration of the synthetic standard of 1′-oxomyristicin, dissolved in ACN, was incubated with different concentrations of GSH (i.e., 0–20 μM) in 0.2 M Tris–HCl (pH 7.4) for 6 h at 37 °C, resulting in full conversion of the GSH to GS-1′-oxymyristicin. Quantification was done by comparing the peak areas of the formed GS-1′-oxo metabolite in the incubation mixtures with peak areas of the GS-1′-oxymyristicin calibration curve thus obtained at a wavelength of 212 nm. The gradient for analysis of the metabolite consisted of a mixture of ACN and ultrapure water containing 0.1 % (v/v) TFA. The flow rate was 0.6 ml/min, The gradient started with 10 % ACN, increased to 30 % ACN over 2.5 min, after which ACN was increased to 80 % over 0.5 min, kept at 80 % for 0.5 min, followed by a decrease to 10 % over 0.5 min, and finally kept at 10 % for 0.5 min.

C=CC(O)c1cc(OC)c2c(c1)OCO2 (stereo not shown) [1′-Hydroxymyristicin, 1′-hydroxymyristicin]
oxidation, times more efficient in human liver than in male rat liver: 1.2 times
